Laboratory results reported in patent US7238701B2, “Substituted tetrahydrobenzothienopyrimidinamine compounds useful for treating hyper-proliferative disorders” (Bayer Pharmaceuticals Corporation, priority 2003, dated 2007).

What was measured:
[1] = test system: A431cells (human epidermoid carcinoma); experiment: In vitro tumor cell proliferation assay (Cell Titer-Glo luminescent cell viability), A431 cells; assay type: cell-based; conditions: A-431, 72 h, 72 hours drug exposure, 10% Fetal Bovine Serum, ATP luminescence readout, read-out: IC50 (50% inhibition of cell proliferation)
How it was run: (§1)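 ATP luminescence (CellTiter-Glo) measured proliferation after 72 h compound exposure at 37 °C, giving IC50 values. Serial dilutions spanning 64 pM–100 μM in 0.1% DMSO were applied one day after plating 2.5×10^3 cells/well in RPMI plus 10% fetal bovine serum.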

[2] = test system: BT474 (human breast carcinoma); experiment: In vitro tumor cell proliferation assay (Cell Titer-Glo luminescent cell viability), BT474 cells; assay type: cell-based; conditions: BT-474, 72 hours drug exposure, 10% Fetal Bovine Serum, ATP luminescence readout, read-out: IC50 (50% inhibition of cell proliferation)
How it was run: as §1

| SMILES | IC50 [1] | IC50 [2] |
| --- | --- | --- |
| Cc1ccc(Oc2ccc(Nc3ncnc4sc5c(c34)CCC(CCOS(C)(=O)=O)C5)cc2C)cn1 (centres unmarked) [Example 215, 2-[4-({3-methyl-4-[(6-methylpyridin-3-yl)oxy]phenyl}amino)-5,6,7,8-tetrahydro[1]benzothieno[2,3-d]pyrimidin-7-yl]ethyl methanesulfonate] | < 50 µM | < 5 µM |
| COCCNCCC1CCc2c(sc3ncnc(Nc4ccc(Oc5ccc(C)nc5)c(C)c4)c23)C1 (centres unmarked) [Example 216, 7-{2-[(2-methoxyethyl)amino]ethyl}-N-{3-methyl-4-[(6-methylpyridin-3-yl)oxy]phenyl}-5,6,7,8-tetrahydro[1]benzothieno[2,3-d]pyrimidin-4-amine] | < 50 µM | < 5 µM |
| Cc1ccc(Oc2ccc(Nc3ncnc4sc5c(c34)CCC(CCNCCO)C5)cc2C)cn1 (centres unmarked) [Example 217, 2-({2-[4-({3-methyl-4-[(6-methylpyridin-3-yl)oxy]phenyl}amino)-5,6,7,8-tetrahydro[1]benzothieno[2,3-d]pyrimidin-7-yl]ethyl}amino)ethanol] | < 50 µM | < 5 µM |
| COCCN(C)CCC1CCc2c(sc3ncnc(Nc4ccc(Oc5ccc(C)nc5)c(C)c4)c23)C1 (centres unmarked) [Example 218, 7-{2-[(2-methoxyethyl)(methyl)amino]ethyl}-N-{3-methyl-4-[(6-methylpyridin-3-yl)oxy]phenyl}-5,6,7,8-tetrahydro[1]benzothieno[2,3-d]pyrimidin-4-amine] | < 50 µM | < 5 µM |
| Cc1ccc(Oc2ccc(Nc3ncnc4sc5c(c34)CCC(CCNCCS(C)(=O)=O)C5)cc2C)cn1 (centres unmarked) [Example 219, N-{3-methyl-4-[(6-methylpyridin-3-yl)oxy]phenyl}-7-(2-{[2-(methylsulfonyl)ethyl]amino}ethyl)-5,6,7,8-tetrahydro[1]benzothieno[2,3-d]pyrimidin-4-amine] | < 50 µM | < 5 µM |
| Cc1ccc(Oc2ccc(Nc3ncnc4sc5c(c34)CCC(CCNCCN3CCOCC3)C5)cc2C)cn1 (centres unmarked) [Example 220, N-{3-methyl-4-[(6-methylpyridin-3-yl)oxy]phenyl}-7-{2-[(2-morpholin-4-ylethyl)amino]ethyl}-5,6,7,8-tetrahydro[1]benzothieno[2,3-d]pyrimidin-4-amine] | < 50 µM | < 5 µM |
| Cc1ccc(Oc2ccc(Nc3ncnc4sc5c(c34)CCC(CCN3CCCC3)C5)cc2C)cn1 (centres unmarked) [Example 221, N-{3-methyl-4-[(6-methylpyridin-3-yl)oxy]phenyl}-7-(2-pyrrolidin-1-ylethyl)-5,6,7,8-tetrahydro[1]benzothieno[2,3-d]pyrimidin-4-amine] | < 5 µM | < 5 µM |
| Cc1ccc(Oc2ccc(Nc3ncnc4sc5c(c34)CCC(CCN(C)CCO)C5)cc2C)cn1 (centres unmarked) [Example 222, 2-(methyl{2-(4-({3-methyl-4-[(6-methylpyridin-3-yl)oxy]phenyl}amino)-5,6,7,8-tetrahydro[1]benzothieno[2,3-d]pyrimidin-7-yl]ethyl}amino)ethanol] | < 5 µM | < 5 µM |
| Cc1ccc(Oc2ccc(Nc3ncnc4sc5c(c34)CCC(CCN3CCC(N(C)C)C3)C5)cc2C)cn1 (centres unmarked) [Example 223, 7-{2-[3-(dimethylamino)pyrrolidin-1-yl]ethyl}-N-{3-methyl-4-[(6-methylpyridin-3-yl)oxy]phenyl}-5,6,7,8-tetrahydro[1]benzothieno[2,3-d]pyrimidin-4-amine] | < 5 µM | < 5 µM |
| Cc1ccc(Oc2ccc(Nc3ncnc4sc5c(c34)CCC(CCN3CCN(C)CC3)C5)cc2C)cn1 (centres unmarked) [Example 224, N-{3-methyl-4-[(6-methylpyridin-3-yl)oxy]phenyl}-7-[2-(4-methylpiperazin-1-yl)ethyl]-5,6,7,8-tetrahydro[1]benzothieno[2,3-d]pyrimidin-4-amine] | < 5 µM | < 5 µM |
| Cc1ccc(Oc2ccc(Nc3ncnc4sc5c(c34)CCC(CCN3CCOCC3)C5)cc2C)cn1 (centres unmarked) [Example 225, N-{3-methyl-4-[(6-methylpyridin-3-yl)oxy]phenyl}-7-(2-morpholin-4-ylethyl)-5,6,7,8-tetrahydro[1]benzothieno[2,3-d]pyrimidin-4-amine] | < 50 µM | < 5 µM |
| Cc1ccc(Oc2ccc(Nc3ncnc4sc5c(c34)CCC(CCN(C)C)C5)cc2C)cn1 (centres unmarked) [Example 226] | < 50 µM | < 5 µM |
| CN1CCN(CCC2CCc3c(sc4ncnc(Nc5ccc6c(cnn6Cc6ccccc6)c5)c34)C2)CC1 (centres unmarked) [Example 227, N-(1-benzyl-1H-indazol-5-yl)-7-[2-(4-methylpiperazin-1-yl)ethyl]-5,6,7,8-tetrahydro[1]benzothieno[2,3-d]pyrimidin-4-amine] | < 50 µM | < 5 µM |
| CN(C)CCC1CCc2c(sc3ncnc(Nc4ccc5c(cnn5Cc5ccccc5)c4)c23)C1 (centres unmarked) [Example 228, N-(1-benzyl-1H-indazol-5-yl)-7-[2-(dimethylamino)ethyl]-5,6,7,8-tetrahydro[1]benzothieno[2,3-d]pyrimidin-4-amine] | < 50 µM | < 5 µM |
| CNCCC1CCc2c(sc3ncnc(Nc4ccc5c(cnn5Cc5ccccc5)c4)c23)C1 (centres unmarked) [Example 229, N-(1-benzyl-1H-indazol-5-yl)-7-[2-(methylamino)ethyl]-5,6,7,8-tetrahydro[1]benzothieno[2,3-d]pyrimidin-4-amine] | < 50 µM | < 5 µM |
| Cc1ccc(Oc2ccc(Nc3ncnc4sc5c(c34)CCC(CCNCCN(C)C)C5)cc2C)cn1 (centres unmarked) [Example 230, N,N-dimethyl-N′-{2-[4-({3-methyl-4-[(6-methylpyridin-3-yl)oxy]phenyl}amino)-5,6,7,8-tetrahydro[1]benzothieno[2,3-d]pyrimidin-7-yl]ethyl}ethane-1,2-diamine] | < 5 µM | < 5 µM |
| Cc1ccc(Oc2ccc(Nc3ncnc4sc5c(c34)CCC(CCN(CCO)CCO)C5)cc2C)cn1 (centres unmarked) [Example 231, 2,2′-({2-[4-({3-methyl-4-[(6-methylpyridin-3-yl)oxy]phenyl}amino)-5,6,7,8-tetrahydro[1]benzothieno[2,3-d]pyrimidin-7-yl]ethyl}imino)diethanol] | < 50 µM | < 5 µM |
| CNCCC1CCc2c(sc3ncnc(Nc4ccc(Oc5ccc(C)nc5)c(C)c4)c23)C1 (centres unmarked) [Example 232, 7-[2-(methylamino)ethyl]-N-{3-methyl-4-[(6-methylpyridin-3-yl)oxy]phenyl}-5,6,7,8-tetrahydro[1]benzothieno[2,3-d]pyrimidin-4-amine] | < 50 µM | < 5 µM |
| Cc1ccc(Oc2ccc(Nc3ncnc4sc5c(c34)CCC(CCN3CCC(O)C3)C5)cc2C)cn1 (centres unmarked) [Example 233, 1-{2-[4-({3-methyl-4-[(6-methylpyridin-3-yl)oxy]phenyl}amino)-5,6,7,8-tetrahydro[1]benzothieno[2,3-d]pyrimidin-7-yl]ethyl}pyrrolidin-3-ol] | < 50 µM | < 5 µM |
| Cc1ccc(Oc2ccc(Nc3ncnc4sc5c(c34)CCC(CCN3CCCC3C)C5)cc2C)cn1 (centres unmarked) [Example 234, N-{3-methyl-4-[(6-methylpyridin-3-yl)oxy]phenyl}-7-[2-(2-methylpyrrolidin-1-yl)ethyl]-5,6,7,8-tetrahydro[1]benzothieno[2,3-d]pyrimidin-4-amine] | < 50 µM | < 5 µM |
| Cc1ccc(Oc2ccc(Nc3ncnc4sc5c(c34)CCC(CCN3C(C)CCC3C)C5)cc2C)cn1 (centres unmarked) [Example 235] | < 50 µM | < 5 µM |
| Cc1ccc(Oc2ccc(Nc3ncnc4sc5c(c34)CCC(CCN3CCCCC3)C5)cc2C)cn1 (centres unmarked) [Example 236, N-{3-methyl-4-[(6-methylpyridin-3-yl)oxy]phenyl}-7-(2-piperidin-1-ylethyl)-5,6,7,8-tetrahydro[1]benzothieno[2,3-d]pyrimidin-4-amine] | < 50 µM | < 5 µM |
| OC1CCN(CCC2CCc3c(sc4ncnc(Nc5ccc6c(cnn6Cc6ccccc6)c5)c34)C2)C1 (centres unmarked) [Example 237, 1-(2-{4-[(1-benzyl-1H-indazol-5-yl)amino]-5,6,7,8-tetrahydro[1]benzothieno[2,3-d]pyrimidin-7-yl}ethyl)pyrrolidin-3-ol] | < 50 µM | < 5 µM |
| CC1CCCN1CCC1CCc2c(sc3ncnc(Nc4ccc5c(cnn5Cc5ccccc5)c4)c23)C1 (centres unmarked) [Example 238, N-(1-benzyl-1H-indazol-5-yl)-7-[2-(2-methylpyrrolidin-1-yl)ethyl]-5,6,7,8-tetrahydro[1]benzothieno[2,3-d]pyrimidin-4-amine] | < 50 µM | < 5 µM |
| c1ccc(Cn2ncc3cc(Nc4ncnc5sc6c(c45)CCC(CCN4CCCCC4)C6)ccc32)cc1 (centres unmarked) [Example 239, (1-Benzyl-1H-indazol-5-yl)-[7-(2-piperidine-1-yl-ethyl)-5,6,7,8-tetrahydro-benzo[4,5]thieno[2,3-d]pyrimidin-4-yl]-amine] | < 50 µM | < 5 µM |
